# Source: US11053234B2 (GlaxoSmithKline Intellectual Property Development Limited, priority 2016, dated 2021)
# Counter-ions that a name gives are not always drawn.
# Molecular target: T1, haematopoietic prostaglandin D synthase (H-PGDS) (Homo sapiens, UniProt O60760)
# T1 construct: Full length human H-PGDS cDNA (Invitrogen Ultimate ORF 10H13026) was amplified by PCR; 6-His (N); TEV protease cleavage site (N); made in house; host or cells: E. coli BL21 (DE3*), vector pET22b+
# Assay: H-PGDS RapidFire high throughput mass spectrometry assay (conversion of PGH2 to PGD2)
# Format: biochemical
# Conditions: 10 nM H-PGDS, PGH2 formed in situ by COX-2 from arachidonic acid; for IC50: read-out: Potency Range (mean pIC50) (converted)
# Protocol: H-PGDS RapidFire™ High Throughput Mass Spectrometry Assay
# The H-PGDS RapidFire™ mass spectrometric assay monitors conversion of prostaglandin H2 (PGH2) to prostaglandin D2 (PGD2) by haematopoietic prostaglandin D synthase (H-PGDS). In the assay format described here, the substrate (PGH2) is formed in situ by the action of cyclooxygenase-2 on arachidonic acid. This first step is set up to be fast, and generates a burst of PGH2 at ˜10 μM. The PGH2 is then further converted to PGD2 by the H-PGDS enzyme. […] Plates are then read on the RapidFire™ high throughput solid phase extraction system (Agilent) which incorporates a solid phase extraction step coupled to a triple quadrupole mass spectrometer (AB SCIEX). Relative levels of PGD2 and PGF2α, which acts as a surrogate for substrate, are measured and a percent conversion calculated.
# Expression and Purification of H-PGDS Protein
# Full length human H-PGDS cDNA (Invitrogen Ultimate ORF 10H13026) was amplified by PCR with the addition of a 5′ 6-His tag and TEV protease cleavage site. The PCR product was digested with Ndel and Xhol and ligated into pET22b+ (Merck Novagen®). Expression was carried out in E. coli strain BL21 (DE3*) using auto-induction Overnight Express™ Instant TB medium (Merck Novagen®) supplemented with 1% glycerol. The culture was first grown at 37° C. and the temperature was reduced to 25° C. when OD600 reached 2.0. Cells were harvested by centrifugation after a further 18 hr. 10 g of E. coli cell pellet was suspended to a total volume of 80 mL in lysis buffer (20 mM Tris-Cl pH 7.5, 300 mM NaCl, 20 mM imidazole, 5 mM β-mercaptoethanol, 10% glycerol). 1 mg/mL protease inhibitors (Protease Inhibitor Cocktail Set III, Merck Calbiochem®) and 1 mg/mL lysozyme were added to the cell suspension. The suspension was then sonicated for 5 min (UltraSonic Processor VCX 750, Cole-Parmer Instrument Co.) with a micro probe (50% amplitude, 10 sec on/off) and then centrifuged at 100,000 g for 90 min (at 4° C.). The supernatant was loaded onto a Ni-NTA HiTrap column (5 mL, GE Healthcare, pre-equilibrated in lysis buffer). The column was washed with 10 column volumes of lysis buffer and eluted with lysis buffer containing 500 mM imidazole. The pooled protein peak fractions were concentrated using a 10 kDa centrifugal filter at 3500 g and 4° C. (Amicon Ultra-15 centrifugal filter unit with Ultracel-10 membrane from Millipore). Further purification of the concentrated protein was carried out using gel filtration chromatography on a HiLoad 26/600 Superdex 75 preparative grade column (GE Healthcare Life Sciences) using 50 mM Tris pH 7.5, 50 mM NaCl, 1 mM dithiothreitol, 1 mM MgCl2. Fractions containing the protein were pooled, concentrated as described above, and stored at −80° C.
# Expression and Purification of Cyclooxygenase-2 (COX-2) Protein
# The full length human COX-2 gene (accession number L15326) was amplified by PCR to generate an EcoRI-HindIII fragment containing an in-frame FLAG tag. This was subcloned into pFastBac 1 (Invitrogen). The COX2 FLAG plasmid was recombined into the baculovirus genome according to the BAC-to-BAC protocol described by Invitrogen. Transfection into Spodoptera frugiperda (Sf9) insect cells was performed using Cellfectin (Invitrogen), according to the manufacturer's protocol. […] Cells were harvested using a continuous feed centrifuge run at 2500 g at a rate of approximately 2 L/min with cooling. The resultant cell slurry was re-centrifuged in pots (2500 g, 20 min, 4° C.) and the cell paste was stored at −80° C. […] The suspension was sonicated in 500 mL batches for 8×5 seconds at 10 u amplitude with the medium tip of an MSE probe sonicator and subsequently incubated at 4° C. for 90 min with gentle stirring. The lysate was centrifuged at 12000 rpm for 45 min at 4° C. in a Sorvall SLA1500 rotor. The supernatant (1400 mL) was added to 420 mL of 20 mM Tris-Cl pH 7.4, 150 mM NaCl, 0.1 mM EDTA to reduce the concentration of n-octyl-6-D-glucopyranoside to 1% w/v.
# T1 sequence (O60760 whole entry): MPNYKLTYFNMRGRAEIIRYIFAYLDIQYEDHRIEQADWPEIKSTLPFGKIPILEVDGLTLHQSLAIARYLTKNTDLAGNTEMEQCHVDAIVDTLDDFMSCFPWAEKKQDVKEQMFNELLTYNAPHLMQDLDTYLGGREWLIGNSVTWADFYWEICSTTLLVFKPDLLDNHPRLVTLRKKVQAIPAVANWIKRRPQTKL
SMILES,IC50 [nM],Potency Range (mean pIC50)
"CC(C)(O)[C@H]1CC[C@H](NC(=O)[C@H]2C[C@H](Oc3ccccc3OC(F)F)C2)CC1 [Example 278, (trans)-3-(2-(Difluoromethoxy)phenoxy)-N-((trans)-4-(2-hydroxypropan-2-yl)cyclohexyl)cyclobutanecarboxamide]",10 to 79.4,
"CC(O)(CO[C@H]1CC[C@H](NC(=O)N2CC(Oc3cccc4scnc34)C2)CC1)C1CC1 (mixture of isomers) [Example 100, Racemic 3-(Benzo[d]thiazol-4-yloxy)-N-((trans)-4-(2-cyclopropyl-2-hydroxypropoxy)cyclohexyl)azetidine-1-carboxamide]",10 to 79.4,
"CS(=O)(=O)C1CCC(NC(=O)N2CC(Oc3cccc4scnc34)C2)CC1 (centres unmarked) [Example 98, 3-(Benzo[d]thiazol-4-yloxy)-N-(4-(methylsulfonyl)cyclohexyl)azetidine-1-carboxamide]",,** (pIC50 = 6.0-7.0)
"COCCO[C@H]1CC[C@H](NC(=O)N2CC(Oc3cc(F)cc4scnc34)C2)CC1 [Example 128, 3-((6-Fluorobenzo[d]thiazol-4-yl)oxy)-N-((trans)-4-(2-methoxyethoxy)cyclohexyl)azetidine-1-carboxamide]",10 to 79.4,
"O=C(c1csc(NC(=O)[C@H]2C[C@H](Oc3cccc4cccnc34)C2)n1)C1CC1 [Example 194, (trans)-N-(4-(Cyclopropanecarbonyl)thiazol-2-yl)-3-(quinolin-8-yloxy)cyclobutanecarboxamide]",10 to 79.4,
"CC(O)([C@H]1CC[C@H](NC(=O)[C@H]2C[C@H](Oc3cc(F)ccc3OC(F)F)C2)CC1)C(F)(F)F (mixture of isomers) [Example 28, Racemic (trans)-3-(2-(Difluoromethoxy)-5-fluorophenoxy)-N-((trans)-4-(1,1,1-trifluoro-2-hydroxypropan-2-yl)cyclohexyl)cyclobutanecarboxamide]",10 to 79.4,
"N#Cc1csc(NC(=O)[C@H]2C[C@H](Oc3cccc4cccnc34)C2)n1 [Example 188, (trans)-N-(4-Cyanothiazol-2-yl)-3-(quinolin-8-yloxy)cyclobutanecarboxamide, trifluoroacetic acid salt]",< 10,
"O=C(NC1CCN(c2ncc(F)cn2)CC1)[C@H]1C[C@H](Oc2cccc3scnc23)C1 [Example 41, (trans)-3-(Benzo[d]thiazol-4-yloxy)-N-(1-(5-fluoropyrimidin-2-yl)piperidin-4-yl)cyclobutanecarboxamide]",10 to 79.4,
"CC(C)(O)[C@H]1CC[C@H](NC(=O)[C@H]2C[C@H](Oc3cccc(Cl)c3)C2)CC1 [Example 288, (trans)-3-(3-Chlorophenoxy)-N-((trans)-4-(2-hydroxypropan-2-yl)cyclohexyl)cyclobutanecarboxamide]",100 to 1000,
"O=C(Nc1nccs1)[C@H]1C[C@H](Oc2cccc3cc(F)cnc23)C1 [Example 281, (trans)-3-((3-Fluoroquinolin-8-yl)oxy)-N-(thiazol-2-yl)cyclobutanecarboxamide]",10 to 79.4,
"CC(C)(O)C12C3C4C1C1C2C3C41NC(=O)N1CC(Oc2cccc3scnc23)C1 (centres unmarked) [Example 317, 3-(Benzo[d]thiazol-4-yloxy)-N-(4-(2-hydroxypropan-2-yl)cuban-1-yl)azetidine-1-carboxamide]",10 to 79.4,
"Cn1nc(C2CC2)cc1NC(=O)N1CC(Oc2cccc3scnc23)C1 [Example 314, 3-(Benzo[d]thiazol-4-yloxy)-N-(3-cyclopropyl-1-methyl-1H-pyrazol-5-yl)azetidine-1-carboxamide]",10 to 79.4,
CCOCc1nc(NC(=O)[C@H]2C[C@H](Oc3cc(F)cc4scnc34)C2)n[nH]1 [Example 335],10 to 79.4,
"COc1ccc(CN2CCC(NC(=O)[C@H]3C[C@H](Oc4cc(F)ccc4OC)C3)CC2)cc1Cl [Example 156, (trans)-N-(1-(3-Chloro-4-methoxybenzyl)piperidin-4-yl)-3-(5-fluoro-2-methoxyphenoxy)cyclobutanecarboxamide]",10 to 79.4,
O=C(NC1CCCCC1)[C@H]1C[C@H](Oc2cccc3scnc23)C1 [Example 253],100 to 1000,
"COCCO[C@H]1CC[C@H](NC(=O)[C@H]2C[C@H](Oc3cc(F)cc4scnc34)C2)CC1 [Example 115, (trans)-3-((6-Fluorobenzo[d]thiazol-4-yl)oxy)-N-((trans)-4-(2-methoxyethoxy)cyclohexyl)cyclobutanecarboxamide]",100 to 1000,
"COc1ccc(F)cc1O[C@H]1C[C@H](C(=O)N[C@H]2CC[C@H](OC)CC2)C1 [Example 150, (trans)-3-(5-Fluoro-2-methoxyphenoxy)-N-((trans)-4-methoxycyclohexyl)cyclobutanecarboxamide]",10 to 79.4,
"COc1ccc(F)cc1O[C@H]1C[C@H](C(=O)NC2CCN(c3ccccn3)CC2)C1 [Example 157, (trans)-3-(5-Fluoro-2-methoxyphenoxy)-N-(1-(pyridin-2-yl)piperidin-4-yl)cyclobutanecarboxamide]",10 to 79.4,
"O=C(Nc1cncnc1)[C@H]1C[C@H](Oc2cc(F)ccc2OC(F)F)C1 [Example 22, (trans)-3-(2-(Difluoromethoxy)-5-fluorophenoxy)-N-(pyrimidin-5-yl)cyclobutanecarboxamide]",100 to 1000,
"O=C(Nc1nccs1)[C@H]1C[C@H](Oc2cccc3cccnc23)C1 [Example 184, trans-3-(8-Quinolinyloxy)-N-1,3-thiazol-2-ylcyclobutanecarboxamide]",< 10,
"O=C(Nc1nc(C2CC2)cs1)[C@H]1C[C@H](Oc2cccc3scnc23)C1 [Example 138, (trans)-3-(Benzo[d]thiazol-4-yloxy)-N-(4-cyclopropylthiazol-2-yl)cyclobutanecarboxamide]",< 10,
"O=C(NC1CCN(c2ccccn2)C1)N1CC(Oc2cccc3scnc23)C1 (racemic) [Example 87, Racemic 3-(Benzo[d]thiazol-4-yloxy)-N-(1-(pyridin-2-yl)pyrrolidin-3-yl)azetidine-1-carboxamide]",100 to 1000,
"O=C(Nc1ccc(N2CCOCC2)cc1)N1CC(Oc2cccc3scnc23)C1 [Example 310, 3-(Benzo[d]thiazol-4-yloxy)-N-(4-morpholinophenyl)azetidine-1-carboxamide]",10 to 79.4,
"CN/C(=N\C#N)N1CC(NC(=O)[C@H]2C[C@H](Oc3cccc4scnc34)C2)C1 [Example 65, (trans)-3-(Benzo[d]thiazol-4-yloxy)-N-(1-((E)-N′-cyano-N-methylcarbamimidoyl)azetidin-3-yl)cyclobutanecarboxamide]",100 to 1000,
"O=C(NC1CN(c2cnccn2)C1)[C@H]1C[C@H](Oc2cccc3scnc23)C1 [Example 246, (trans)-3-(Benzo[d]thiazol-4-yloxy)-N-(1-(pyrazin-2-yl)azetidin-3-yl)cyclobutanecarboxamide]",10 to 79.4,
"CC(C)(O)[C@@H]1CC[C@@H](NC(=O)N2CC(Oc3cccc4scnc34)C2)CO1 (racemic) [Example 104, Racemic 3-(Benzo[d]thiazol-4-yloxy)-N-((trans)-6-(2-hydroxypropan-2-yl)tetrahydro-2H-pyran-3-yl)azetidine-1-carboxamide]",10 to 79.4,
